Measurements: publication PMC8300687, “A Fine-Tuned Lipophilicity/Hydrophilicity Ratio Governs Antibacterial Potency and Selectivity of Bifurcated Halogen Bond-Forming NBTIs” (Antibiotics, 2021)
Values after ≈ are worked out from the molar mass of the structure shown. Where two headings read alike, the source gives them in different places.

What was measured:
S. aureus DNA gyrase = target: T1, S. aureus DNA gyrase (Staphylococcus aureus, UniProt P20831); assay: biochemical; assay type: biochemical; conditions: for LE DNA Gyrase S. aureus: LE = (1.37/HA) × pIC50; for IC50: fluorescence plate supercoiling assay, mean of two to four measurements
T1 construct: purchased Inspiralis (Norwich, UK)
T1 sequence (P20831 whole entry): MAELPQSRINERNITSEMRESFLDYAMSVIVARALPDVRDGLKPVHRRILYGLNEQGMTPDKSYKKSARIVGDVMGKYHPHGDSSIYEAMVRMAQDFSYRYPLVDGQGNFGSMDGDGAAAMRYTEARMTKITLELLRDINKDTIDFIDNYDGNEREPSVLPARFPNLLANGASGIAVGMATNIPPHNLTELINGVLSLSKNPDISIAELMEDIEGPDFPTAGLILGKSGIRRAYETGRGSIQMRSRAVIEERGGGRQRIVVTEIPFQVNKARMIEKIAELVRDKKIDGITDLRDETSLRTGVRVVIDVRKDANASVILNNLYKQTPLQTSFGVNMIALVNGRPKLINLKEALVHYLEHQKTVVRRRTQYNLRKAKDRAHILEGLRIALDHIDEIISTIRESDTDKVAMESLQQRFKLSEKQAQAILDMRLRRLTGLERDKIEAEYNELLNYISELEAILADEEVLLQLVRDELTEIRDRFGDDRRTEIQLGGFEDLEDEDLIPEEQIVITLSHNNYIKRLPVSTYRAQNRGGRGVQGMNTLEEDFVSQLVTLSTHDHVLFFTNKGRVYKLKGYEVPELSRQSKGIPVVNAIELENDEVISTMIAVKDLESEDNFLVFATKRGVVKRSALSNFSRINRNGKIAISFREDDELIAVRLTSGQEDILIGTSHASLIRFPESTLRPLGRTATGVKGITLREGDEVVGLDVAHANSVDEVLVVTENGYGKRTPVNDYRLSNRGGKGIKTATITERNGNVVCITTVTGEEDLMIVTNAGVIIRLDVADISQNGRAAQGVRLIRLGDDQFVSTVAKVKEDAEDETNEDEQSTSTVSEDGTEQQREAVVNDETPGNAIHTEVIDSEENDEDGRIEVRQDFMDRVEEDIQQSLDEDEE
T1 sequence (P0A0K8 whole entry partner): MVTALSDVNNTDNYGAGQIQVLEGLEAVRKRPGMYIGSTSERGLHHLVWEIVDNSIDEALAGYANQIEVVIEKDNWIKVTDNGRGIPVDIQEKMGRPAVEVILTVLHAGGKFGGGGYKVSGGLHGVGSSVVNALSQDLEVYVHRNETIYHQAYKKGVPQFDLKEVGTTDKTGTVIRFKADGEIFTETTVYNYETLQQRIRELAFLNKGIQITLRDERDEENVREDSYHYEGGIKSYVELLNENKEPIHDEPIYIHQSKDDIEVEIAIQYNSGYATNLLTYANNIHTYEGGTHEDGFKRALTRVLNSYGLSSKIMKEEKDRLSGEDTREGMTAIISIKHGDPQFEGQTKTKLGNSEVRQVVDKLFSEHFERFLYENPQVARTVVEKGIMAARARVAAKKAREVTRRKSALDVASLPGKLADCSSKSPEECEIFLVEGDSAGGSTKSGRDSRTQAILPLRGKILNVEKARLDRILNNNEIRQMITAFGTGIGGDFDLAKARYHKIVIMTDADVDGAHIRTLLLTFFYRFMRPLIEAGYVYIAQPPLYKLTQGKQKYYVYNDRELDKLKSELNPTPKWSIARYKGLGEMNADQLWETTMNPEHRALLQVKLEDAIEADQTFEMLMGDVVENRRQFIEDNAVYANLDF
Description: (§1) A Gyrase Supercoiling High Throughput Plate assay kit, purchased from Inspiralis (Norwich. UK) was used to determine IC50 values of compounds on S. aureus and E. coli. […] Biotinylated oligonucleotide in wash buffer was immobilized onto the wells, and the excess oligonucleotide was washed off with wash buffer and ultrapure water. […] The reactions were stopped by adding the TF buffer (50 mM NaOAc (pH 4.7), 50 mM NaCl, and 50 mM MgCl2) to allow the triplex formation (biotin-oligonucleotide-plasmid) for additional 30 min. Afterward, the unbound plasmid was washed off using TF buffer, and the solution of Promega Diamond dye in T10 buffer (10 mM Tris-HCl (pH 8.0), 1 mM EDTA) was added. […] IC50 value represents the mean of two to four independent measurements.

E. coli DNA gyrase = target: T2, E. coli DNA gyrase (Escherichia coli, UniProt P0AES4); assay: Gyrase Supercoiling High Throughput Plate assay, E. coli; assay type: biochemical; conditions: for LE DNA Gyrase E. coli: LE = (1.37/HA) × pIC50
T2 construct: purchased Inspiralis (Norwich, UK)
T2 sequence (P0AES4 whole entry): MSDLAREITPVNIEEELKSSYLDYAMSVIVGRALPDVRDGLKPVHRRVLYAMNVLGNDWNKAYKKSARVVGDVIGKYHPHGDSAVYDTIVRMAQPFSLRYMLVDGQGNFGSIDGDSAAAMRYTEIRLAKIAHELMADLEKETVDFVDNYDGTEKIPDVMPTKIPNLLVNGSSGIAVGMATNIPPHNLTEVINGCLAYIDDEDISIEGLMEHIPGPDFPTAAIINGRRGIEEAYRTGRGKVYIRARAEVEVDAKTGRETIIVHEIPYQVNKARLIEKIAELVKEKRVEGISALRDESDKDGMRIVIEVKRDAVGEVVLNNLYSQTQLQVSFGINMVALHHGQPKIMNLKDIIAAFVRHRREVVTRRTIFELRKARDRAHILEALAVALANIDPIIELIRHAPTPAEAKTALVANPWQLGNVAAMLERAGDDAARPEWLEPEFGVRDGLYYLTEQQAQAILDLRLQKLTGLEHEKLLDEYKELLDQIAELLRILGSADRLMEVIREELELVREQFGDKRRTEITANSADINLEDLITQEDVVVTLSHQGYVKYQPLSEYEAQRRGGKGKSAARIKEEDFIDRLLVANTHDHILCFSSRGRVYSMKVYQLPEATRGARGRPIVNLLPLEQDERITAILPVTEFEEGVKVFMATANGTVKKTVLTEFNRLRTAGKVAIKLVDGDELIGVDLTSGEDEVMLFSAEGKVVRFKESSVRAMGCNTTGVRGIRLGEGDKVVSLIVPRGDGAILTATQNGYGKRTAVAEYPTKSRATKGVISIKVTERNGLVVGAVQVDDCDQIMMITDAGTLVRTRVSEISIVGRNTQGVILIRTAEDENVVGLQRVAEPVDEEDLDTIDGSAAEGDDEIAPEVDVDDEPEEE
Description: as §1

MRSA (QA-11.6) = assay: MIC broth microdilution, MRSA QA-11.6; assay type: cell-based, methicillin-resistant S. aureus; conditions: Staphylococcus aureus, read-out: MIC MRSA (QA-11.6)
Description: (§2) Antimicrobial testing was carried out by the broth microdilution method in 96-well plate format following the Clinical and Laboratory Standards Institute (CLSI) guidelines and European Committee on Antimicrobial Susceptibility Testing (EUCAST) recommendations. Bacterial suspension of specific bacterial strain equivalent to 0.5 McFarland turbidity standard was diluted with cation-adjusted Mueller Hinton broth with TES (Thermo Fisher Diagnostic, Landsmeer, The Netherlands), to obtain a final inoculum of 10^5 CFU/mL. Compounds dissolved in DMSO and inoculum were mixed together and incubated for 18–20 h at 35 °C. Suspensions of Mycobacterium sp. were prepared into a tube of Middelbrook 7H9 broth supplemented with 5% OADC (Thermo Scientific, Trek Diagnostic Systems, West Sussex, UK) and incubated for at least 10 days. After incubation the minimal inhibitory concentration (MIC) values were determined by visual inspection as the lowest dilution of compounds showing no turbidity. Tetracycline was used as a positive control on every assay plate.

MRSA (QA-11.2) = assay: MIC broth microdilution, MRSA QA-11.2; assay type: cell-based, methicillin-resistant S. aureus; conditions: Staphylococcus aureus, 20 h, read-out: MIC MRSA (QA-11.2)
Description: as §2

[1] = test system: S. agalactiae RDK 047 (QA-990/02); assay: MIC broth microdilution, S. agalactiae; assay type: cell-based
Description: as §2

E. coli (QA-11.8) = assay: MIC broth microdilution, E. coli QA-11.8; assay type: cell-based
Description: as §2

E. coli N43 (CGSC# 5583) = assay: MIC broth microdilution, E. coli N43; assay type: cell-based; conditions: for MIC: Escherichia coli
Description: as §2

[2] = test system: S. alachua RDK 030c (QA-1482/04); assay: MIC broth microdilution, S. alachua; assay type: cell-based
Description: as §2

M. avium = assay: MIC, M. avium; assay type: cell-based
Description: as §2

HUVEC = assay: Metabolic activity assessment (cytotoxicity), HUVEC; assay type: cell-based; conditions: Homo sapiens, metabolic activity after 72 h treatment
Description: Cells of the HepG2 line (ATCC® HB-8065™) and HUVEC (ATCC® CRL-1730™) were cultured in Dulbecco’s Modified Eagle Medium (DMEM; Sigma-Aldrich, St. Louis, MO, USA) supplemented with 10% heat-deactivated FBS (Gibco, Grand Island, NE, USA), 2 mM L-glutamine, 100 U/mL penicillin, 100 μg/mL streptomycin (all from Sigma-Aldrich, St. Louis, MO, USA) in a humidified chamber at 37 °C and 5% CO2. The experiments were carried out on passages 7–9 for both cell lines. The tested compounds were dissolved in DMSO and further diluted in culture medium to a desired final concentration. Cells were seeded into 96-well plates at 8 × 10^4 cells/mL (100 μL/well) and incubated for 24 h to attach onto the wells. Cells were treated with 1 μM and 50 μM of each compound of interest or corresponding vehicle as control. […] The metabolic activity was assessed after 72 h treatment using the CellTiter 96 Aqueous One Solution Cell Proliferation Assay (Promega, Madison, WI, USA), in accordance with the manufacturer’s instructions. The absorbance was measured at 492 nm on an automated microplate reader BioTek Synergy HT (BioTek Instruments, Inc., Winooski, VT, USA). Data are presented as the percentage of metabolic activity of control cells stimulated with vehicle or as IC50 value (mean ± SD) from two independent experiments, each conducted in duplicate or triplicate. IC50 values were calculated by a non-linear regression model using Graph Pad Prism 7 software.

[3] = Equilibrium solubility at pH 6.8; conditions: phosphate buffered saline, 37 °C, pH 6.8, aqueous buffer, thermodynamic from solid
Description: (§3) Prior to the measurements of solubility and permeability isocratic HPLC methods were developed. […] The individual method parameters for each compound are given in the Supplementary Materials Table S1.
The vials were then placed in a homogenizer (Next Advance Bullet Blender, Troy, NY, USA) for 5 min ad speed setting “2” after which they were kept in a thermostated shaker (Tehtnica HeatMix, Domel, Slovenia) at 37 °C and 1200 RPM for 24 h. […] Twenty µL of these solutions were injected for the HPLC analysis by the described methods (Supplementary Materials Table S1). External standards for calibration were made in a mobile phase with 5% acetonitrile in a range of 30–90 mg/L and injected at 20 µL injection volumes.

in vitro = conditions: for Papp at 4 h: PAMPA; for PAMPA permeability classification [low/high]: relative to reference drugs
Description: as §3
A 96-well precoated three-layer PAMPA plates (Corning® Gentest™ Pre-coated PAMPA Plate System, Corning, NY, USA) were used according to the manufacturer’s instructions and as described previously with 300 µL of the donor solutions in the bottom compartment and 200 µL of the acceptor solution (pH 7.4 PBS) in the upper compartment at 37 °C and a 4-h incubation time. The initial and end donor solutions were injected at a 5 µL injection volume. The initial donor solutions were also diluted 100-fold and injected at a 100 µL injection volume to serve as external references for the end acceptor solutions which were injected at the same injection volume. The permeability calculations were made with a manufacturer-provided Excel spreadsheet directly from the measured peak areas accounting for the relevant dilutions and injection volumes.

[4] = resistant to cefoxitin, gentamicin, sulfamethoxazole, tetracycline
[5] = resistant to cefoxitin, chloramphenicol, clindamycin, linezolid, tetracycline, thiamulin, trimethoprim
[6] = Streptococcus agalactiae; read-out: MIC S. agalactiae RDK 047 (QA-990/02)
[7] = Escherichia coli, 20 h; read-out: MIC E. coli (QA-11.8)
[8] = read-out: E. coli N43 MIC in molar
[9] = read-out: MIC E. coli N43 (CGSC# 5583)
[10] = Salmonella; read-out: MIC S. alachua RDK 030c (QA-1482/04)
[11] = Mycobacterium avium; read-out: MIC M. avium

Compound	LE DNA Gyrase S. aureus (S. aureus DNA gyrase)	IC50 (S. aureus DNA gyrase)	IC50 (E. coli DNA gyrase)	MIC (MRSA (QA-11.6); [4])	MIC (MRSA (QA-11.2); [5])	MIC [1, 6]	MIC (E. coli (QA-11.8); [7])	MIC (E. coli N43 (CGSC# 5583); [8])	MIC (E. coli N43 (CGSC# 5583); [9])	MIC [2, 10]	MIC (M. avium; [11])	solubility thermodynamic at 24 h [3]	Papp at 4 h (in vitro)	Papp at 4 h (in vitro; pH 7.4)	LE DNA Gyrase E. coli (E. coli DNA gyrase)	other results
COc1ccc2nccc(CCN3CCC(NCc4nc5ccccc5n4C)CC3)c2n1 [Compound 3, 1-(2-(6-Methoxy-1,5-naphthyridin-4-yl)ethyl)-N-((1-methyl-1H-benzo[d]imidazol-2-yl)methyl)piperidin-4-amine]	0.25	1.6 ± 0.35 µM	> 100 µM	2 µg/mL (≈ 4.65 µM)	4 µg/mL (≈ 9.29 µM)	< 1 µg/mL	64 µg/mL (≈ 149 µM)	37.2 µM	16 µg/mL	> 128 µg/mL	> 128 µg/mL	349 µg/mL (≈ 811 µM)	> 2.7 ×10⁻⁶ cm/s	5.4 ×10⁻⁶ cm/s	–	IC50 (HUVEC): > 50 µM
COc1ccc2nccc(CCN3CCC(NCc4cnn(-c5ccc(F)cc5)c4)CC3)c2n1 [Compound 4, N-((1-(4-Fluorophenyl)-1H-pyrazol-4-yl)methyl)-1-(2-(6-methoxy-1,5-naphthyridin-4-yl)ethyl)piperidin-4-amine]	0.25	0.51 ± 0.25 µM	13.3 ± 2.84 µM	4 µg/mL (≈ 8.69 µM)	8 µg/mL (≈ 17.4 µM)	2 µg/mL (≈ 4.34 µM)	16 µg/mL (≈ 34.7 µM)	4.34 µM	2 µg/mL	128 µg/mL (≈ 278 µM)	128 µg/mL (≈ 278 µM)	585 µg/mL (≈ 1270 µM)	> 2.7 ×10⁻⁶ cm/s	14.2 ×10⁻⁶ cm/s	0.20	IC50 (HUVEC): 9.64 ± 0.03 µM
COc1ccc2nccc(CCN3CCC(NC(=O)c4cn5cccc(C#N)c5n4)CC3)c2n1 [Compound 7, 8-Cyano-N-(1-(2-(6-methoxy-1,5-naphthyridin-4-yl)ethyl)piperidin-4-yl)imidazo[1,2-a]pyridine-2-carboxamide]	–	> 100 µM	> 100 µM	–	–	–	–	281 µM	> 128 µg/mL	–	–	883 µg/mL (≈ 1940 µM)	–	2.6 ×10⁻⁶ cm/s	–	MIC (MRSA (QA-11.6)): > 128 µg/mL; MIC (MRSA (QA-11.2)): > 128 µg/mL; MIC ([1]; Streptococcus agalactiae, read-out: MIC S. agalactiae RDK 047 (QA-990/02)): > 128 µg/mL; MIC (E. coli (QA-11.8); Escherichia coli, 20 h, read-out: MIC E. coli (QA-11.8)): > 128 µg/mL; MIC ([2]; Salmonella, read-out: MIC S. alachua RDK 030c (QA-1482/04)): > 128 µg/mL; MIC (M. avium; Mycobacterium avium, read-out: MIC M. avium): > 128 µg/mL; PAMPA permeability classification [low/high] (in vitro): int erm ediat e
COc1ccc2nccc(CCN3CCC(NCc4ccccc4)CC3)c2n1 [Compound 11]	0.29	–	40.6 ± 1.97 µM	8 µg/mL (≈ 21.2 µM)	8 µg/mL (≈ 21.2 µM)	16 µg/mL (≈ 42.5 µM)	64 µg/mL (≈ 170 µM)	21.2 µM	8 µg/mL	> 128 µg/mL	> 128 µg/mL	1370 µg/mL (≈ 3640 µM)	> 2.7 ×10⁻⁶ cm/s	10.9 ×10⁻⁶ cm/s	0.21	–
COc1ccc2nccc(CCN3CCC(NCc4ccc(F)cc4)CC3)c2n1 [Compound 12]	0.30	–	17 ± 1.69 µM	4 µg/mL (≈ 10.1 µM)	4 µg/mL (≈ 10.1 µM)	8 µg/mL (≈ 20.3 µM)	16 µg/mL (≈ 40.6 µM)	10.1 µM	4 µg/mL	128 µg/mL (≈ 324 µM)	32 µg/mL (≈ 81.1 µM)	460 µg/mL (≈ 1170 µM)	> 2.7 ×10⁻⁶ cm/s	12.1 ×10⁻⁶ cm/s	0.23	–
COc1ccc2nccc(CCN3CCC(NCc4ccc(Cl)cc4)CC3)c2n1 [Compound 13]	–	–	–	0.25 µg/mL (≈ 0.608 µM)	0.25 µg/mL (≈ 0.608 µM)	1 µg/mL (≈ 2.43 µM)	2 µg/mL (≈ 4.87 µM)	1.22 µM	0.5 µg/mL	32 µg/mL (≈ 77.9 µM)	4 µg/mL (≈ 9.73 µM)	119 µg/mL (≈ 290 µM)	> 2.7 ×10⁻⁶ cm/s	13.2 ×10⁻⁶ cm/s	–	–
COc1ccc2nccc(CCN3CCC(NCc4ccc(Br)cc4)CC3)c2n1 [Compound 14]	–	–	–	0.0625 µg/mL (≈ 0.137 µM)	–	0.5 µg/mL (≈ 1.1 µM)	1 µg/mL (≈ 2.2 µM)	0.27 µM	0.125 µg/mL	16 µg/mL (≈ 35.1 µM)	2 µg/mL (≈ 4.39 µM)	72 µg/mL (≈ 158 µM)	> 2.7 ×10⁻⁶ cm/s	31.5 ×10⁻⁶ cm/s	–	MIC (MRSA (QA-11.2)): 0.125 µg/mL (≈ 0.274 µM)
COc1ccc2nccc(CCN3CCC(NCc4ccc(I)cc4)CC3)c2n1 [Compound 15]	–	–	–	0.0312 µg/mL (≈ 0.0622 µM)	0.0312 µg/mL (≈ 0.0622 µM)	0.125 µg/mL (≈ 0.249 µM)	0.25 µg/mL (≈ 0.498 µM)	0.16 µM	0.078 µg/mL	8 µg/mL (≈ 15.9 µM)	1 µg/mL (≈ 1.99 µM)	184 µg/mL (≈ 366 µM)	> 2.7 ×10⁻⁶ cm/s	39.8 ×10⁻⁶ cm/s	–	E. coli N43 MIC in molar (E. coli N43 (CGSC# 5583); E. coli CGSC# 5583, AcrA knockout strain): 0.16 µM; IC50 (HUVEC; 72 h): ~20 µM
COc1ccc2nccc(CCN3CCC(NCc4ccc(C(N)=O)cc4)CC3)c2n1 [Compound 17]	0.25	1.82 ± 0.11 µM	> 100 µM	4 µg/mL (≈ 9.53 µM)	8 µg/mL (≈ 19.1 µM)	> 128 µg/mL	> 128 µg/mL	38.1 µM	16 µg/mL	> 128 µg/mL	128 µg/mL (≈ 305 µM)	560 µg/mL (≈ 1330 µM)	–	0.31 ×10⁻⁶ cm/s	–	PAMPA permeability classification [low/high] (in vitro): low
COc1ccc2nccc(CCN3CCC(NCc4ccc(N(C)C)cc4)CC3)c2n1 [Compound 18]	0.32	–	11.9 ± 0.83 µM	0.25 µg/mL (≈ 0.596 µM)	0.5 µg/mL (≈ 1.19 µM)	0.25 µg/mL (≈ 0.596 µM)	8 µg/mL (≈ 19.1 µM)	2.45 µM	1 µg/mL	128 µg/mL (≈ 305 µM)	128 µg/mL (≈ 305 µM)	537 µg/mL (≈ 1280 µM)	> 2.7 ×10⁻⁶ cm/s	16.7 ×10⁻⁶ cm/s	0.22	–
